Laboratory results published in article PMC12226733, “Evolution of iGluR ligand specificity, polyamine regulation, and ion selectivity inferred from a placozoan epsilon receptor” (Communications Biology, 2025).
Where a chain is given by its changes, count along the chain named. “And” between values parts separate entries of the source, which are not always exact repeats. Equal entries are not always repeated. Where two headings read alike, the source gives them in different places.

Experiments:
GluE1αA m3 variant = target: T1, GluE1αA m3 variant (Trichoplax adhaerens, UniProt B3SAW0, F306Y/I236T/S234G); settings: 10 mM glutamate
T1 sequence (B3SAW0 1-341 S234G/I236T/F306Y): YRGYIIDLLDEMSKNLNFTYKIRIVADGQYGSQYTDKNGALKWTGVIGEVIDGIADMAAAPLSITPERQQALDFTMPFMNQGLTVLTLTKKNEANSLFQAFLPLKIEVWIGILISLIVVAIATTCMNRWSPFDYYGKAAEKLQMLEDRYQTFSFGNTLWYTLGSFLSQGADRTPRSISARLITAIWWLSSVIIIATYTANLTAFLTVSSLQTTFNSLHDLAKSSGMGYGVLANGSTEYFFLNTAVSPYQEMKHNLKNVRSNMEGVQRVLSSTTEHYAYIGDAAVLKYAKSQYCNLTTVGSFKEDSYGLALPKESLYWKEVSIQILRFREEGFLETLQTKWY

[1] = target: T2, GluE1αA wildtype receptor (Trichoplax adhaerens, UniProt B3SAW0); settings: wild type, 10 mM glycine
T2 sequence (B3SAW0 1-341): T1 sequence (B3SAW0 1-341 S234G/I236T/F306Y) with G234S, T236I, Y306F

[2] = tested on: GluE1αA m2 variant (S653G, I655T); assay type: cell-based, Trichoplax adhaerens
Source text: (§1) As noted, a model has been put forward that defines iGluR ligand specificity based on a set of key amino acids in the LBD of iGluRs[11]. […] To the best of our knowledge, whether these few positions are indeed solely responsible for ligand specificity, and moreover, can be altered to switch specificity for natural ligands, has not been experimentally tested. […] We also created a triple mutant, with an additional phenylalanine to tyrosine mutation at position 732 (F732Y; m3 variant), to make the T. adhaerens epsilon receptor resemble GluN2A and GluA2 receptors from human, reasoning that this mutation might enhance glutamate sensitivity. We also generated a single F732Y mutant (m1 variant), to assess the contribution of this amino acid to ligand specificity in isolation.
(§2) The cDNA of the T. adhaerens GluE1αA receptor was cloned into the mammalian expression vector pIRES2-EGFP, using a 5’ nested primer that inserted a mammalian consensus Kozak sequence of […] (Supplementary Table 5). Several mutants/variants of this receptor where also prepared via site directed mutagenesis using standard procedures and primers listed in Supplementary Table 5. For electrophysiological comparisons, we commissioned GenScript (USA) to synthesize the cDNA of the human GluA2 […] receptor (NCBI accession number NP_001077088.2), which was cloned into the pIRES2-EGFP vector with a Kozak sequence flanking the start codon and restriction enzymes SalI and BamHI at the 5’ and 3’ ends of the cDNA, respectively. Receptor cDNAs in the various pIRES2 constructs were transfected into Chinese Hamster Ovary-K1 (CHO-K1; Sigma) cells cultured in Dulbecco’s Modified Eagle Medium Nutrient Mixture F-12 (DMEM/F12) supplemented with 10% Fetal Bovine Serum (FBS) and 1% penicillin-streptomycin at 37°C. Transfections were done with 2 μg of plasmid vector using the transfecting reagent PolyJet^TM (SignaGen Laboratories, USA) according to the manufacturer’s instructions and plated onto glass coverslips in 35 mm dishes the next day. Transfected cells were incubated at 28°C for 2 to 4 days, then coverslips were transferred to a new 60 mm dish with 5 mL of external recording solution. […] Agonists and pharmacological compounds used in this study were dissolved in corresponding external solutions. […] Patch pipettes were pulled using a P-1000 micropipette puller (Sutter, USA), from thick-walled borosilicate tubing (1.5 and 0.86 outer and inner diameter, respectively), to a resistance of between 1 and 6 megaohms.

[3] = tested on: GluE1αA m1 variant (F732Y); assay type: cell-based, Trichoplax adhaerens
Source text: as §1, §2

[4] = tested on: GluE1αA m3 variant (S653G, I655T, F732Y); assay type: cell-based, Trichoplax adhaerens; settings: m3
Source text: as §1, §2

[5] = target: T3, T. adhaerens GluE1αA receptor (wildtype) (Trichoplax adhaerens, UniProt B3SAW0); experiment: whole-cell patch clamp, agonist-evoked currents in CHO-K1 cells; assay type: cell-based
[6] = target: T3, T. adhaerens GluE1αA receptor (wildtype); settings: 2 s pulse of 3 mM glycine, wash of increasing duration, 2 s test pulse; single exponential; n = 10
Source text: as §2

GluE1αA S642R [7] = assay type: cell-based, Trichoplax adhaerens
GluE1αA wildtype [8] = assay type: cell-based, Trichoplax adhaerens
GluE1αA S642N [9] = target: T4, GluE1αA S642N (Trichoplax adhaerens, UniProt B3SAW0, S167N); assay type: cell-based
T4 sequence (B3SAW0 1-341 S167N): T1 sequence (B3SAW0 1-341 S234G/I236T/F306Y) with S167N, G234S, T236I, Y306F

GluE1αA wildtype [10] = assay type: cell-based, Trichoplax adhaerens; remark: listed apart in the source
GluE1αA S642Q [11] = target: T5, GluE1αA S642Q (Trichoplax adhaerens, UniProt B3SAW0, S167Q); assay type: cell-based
T5 sequence (B3SAW0 1-341 S167Q): T1 sequence (B3SAW0 1-341 S234G/I236T/F306Y) with S167Q, G234S, T236I, Y306F

GluE1αA S642Q [12] = target: T5, GluE1αA S642Q; assay type: cell-based; remark: listed apart in the source
GluE1αA S642Q plus D646A [13] = assay type: cell-based, Trichoplax adhaerens
GluE1αA D646A [14] = assay type: cell-based, Trichoplax adhaerens
GluE1αA S642Q plus D646A [15] = assay type: cell-based, Trichoplax adhaerens; remark: listed apart in the source
GluE1αA S642N [16] = target: T4, GluE1αA S642N; assay type: cell-based; remark: listed apart in the source
GluE1αA S642R [17] = assay type: cell-based, Trichoplax adhaerens; remark: listed apart in the source
GluE1αA D646A [18] = assay type: cell-based, Trichoplax adhaerens; remark: listed apart in the source
[19] = m1, ligand 10 mM, normalized to glycine

T3 sequence (B3SAW0 entry or part of it): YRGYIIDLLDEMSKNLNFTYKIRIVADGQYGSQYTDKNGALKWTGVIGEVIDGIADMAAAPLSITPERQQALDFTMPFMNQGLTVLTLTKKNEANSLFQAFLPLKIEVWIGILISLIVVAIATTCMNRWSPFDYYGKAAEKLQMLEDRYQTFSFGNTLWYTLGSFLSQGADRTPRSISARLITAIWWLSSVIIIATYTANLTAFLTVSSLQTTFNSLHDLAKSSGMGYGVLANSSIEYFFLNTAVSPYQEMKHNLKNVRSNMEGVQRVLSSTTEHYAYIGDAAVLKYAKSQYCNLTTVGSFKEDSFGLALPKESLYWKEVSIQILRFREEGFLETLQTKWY

N#Cc1cc2[nH]c(=O)c(=O)[nH]c2cc1[N+](=O)[O-] [CNQX, 6-cyano-7-nitroquinoxaline-2,3-dione]
current normalized to peak amplitude in the absence of CNQX, Avg (GluE1αA m3 variant; CNQX 1 µM): 1.22
current normalized to peak amplitude in the absence of CNQX, single recording (GluE1αA m3 variant; CNQX 1 µM): 1.09 and 1.17 and 1.15 and 0.98 and 1.22 and 1.35 and 1.57
current normalized to peak amplitude in the absence of CNQX, Avg (GluE1αA m3 variant; CNQX 10 µM): 0.42
current normalized to peak amplitude in the absence of CNQX, single recording (GluE1αA m3 variant; CNQX 10 µM): 0.44 and 0.38 and 0.42 and 0.52 and 0.35
current normalized to peak amplitude in the absence of CNQX, Avg (GluE1αA m3 variant; CNQX 100 µM): 0.08
current normalized to peak amplitude in the absence of CNQX, Avg ([1]; CNQX 1 µM): 0.99
current normalized to peak amplitude in the absence of CNQX, single recording ([1]; CNQX 1 µM): 1.07 and 0.91 and 0.98 and 1.00 and 1.01 and 0.97 and 0.94
current normalized to peak amplitude in the absence of CNQX, Avg ([1]; CNQX 10 µM): 0.86
current normalized to peak amplitude in the absence of CNQX, single recording ([1]; CNQX 10 µM): 0.80 and 0.79 and 0.93 and 0.89 and 0.85 and 0.87
current normalized to peak amplitude in the absence of CNQX, Avg ([1]; CNQX 100 µM): 0.29

NCC(=O)O [glycine]
normalized peak inward current, Avg [2]: 0.37 and 0.38
normalized peak inward current, single recording [2]: 0.36 and 0.37 and 0.44 and 0.40 and 0.28 and 0.49 and 0.42 and 0.34
EC50 ([3]; m1 (F732Y) variant, dose response of normalized current): 300 ± 40 µM
normalized current (dose response), Avg ([3]; m1, glycine 0.03 mM): 0.00429
normalized current (dose response), single recording ([3]; m1, glycine 0.03 mM): 0.00434 and 0.00425
normalized current (dose response), Avg ([3]; m1, glycine 0.1 mM): 0.0331
normalized current (dose response), Avg ([3]; m1, glycine 0.3 mM): 0.50
normalized current (dose response), single recording ([3]; m1, glycine 0.3 mM): 0.36 and 0.35 and 0.56 and 0.51 and 0.57 and 0.65 and 0.62
normalized current (dose response), Avg ([3]; m1, glycine 1 mM): 0.98
normalized current (dose response), single recording ([3]; m1, glycine 1 mM): 0.97 and 1.00 and 0.96
normalized current (dose response), Avg ([3]; m1, glycine 3 mM): 0.99
normalized current (dose response), single recording ([3]; m1, glycine 3 mM): 1.00 and 0.99 and 0.96
normalized current (dose response), Avg ([3]; m1, glycine […]): 0.85
normalized peak inward current, Avg [3, 19]: 1.00
normalized peak inward current, single recording [3, 19]: 0.93 and 1.04 and 1.03 and 0.96
normalized peak inward current, Avg ([4]; agonist 1 mM): 0.0155
normalized peak inward current, Avg ([4]; ligand 10 mM, normalized to glutamate): 0.0446
activation of ligand-gated current [5]: activated
normalized peak inward current, Avg [5]: 1.02 and 1.00
sensitivity to agonist [5]: robust currents
time constant of recovery from desensitization (τ) [6]: 184 ± 45 ms

[Cs+] [Cs]
pCs/pCa (GluE1αA S642R [7]): 2.85 and 2.43 and 1.93 and 2.69 and 2.80 and 3.78
pCs/pCa (GluE1αA wildtype [8]): 1.08 and 0.98 and 1.16 and 1.36 and 1.19 and 1.14
pCs/pNa (GluE1αA S642N [9]): 1.10 and 1.06 and 1.08 and 0.97 and 0.98 and 0.82
Avg of recordings (Figure S7c, G-V, normalized) (GluE1αA wildtype [10]): 0.58 and 0.69 and 0.78 and 0.80 and 1.00 and 0.93 and 0.77 and 0.60
pCs/pNa (GluE1αA wildtype [10]): 0.95 and 0.96 and 0.99 and 0.93 and 0.92
pCs/pNa (GluE1αA S642Q [11]): 0.77 and 1.08 and 1.06 and 1.15 and 1.01 and 1.25
pCs/pCa (GluE1αA S642Q [12]): 8.99 and 7.25 and 7.15 and 8.09 and 7.84 and 7.74 and 7.89
pCs/pNa (GluE1αA S642Q plus D646A [13]): 1.15 and 1.09 and 1.10 and 1.24 and 1.08 and 1.02
Cs vs Ca, Avg (Figure S8e, normalized G-V) (GluE1αA D646A [14]): 1.00 and 0.97 and 0.90 and 0.81 and 0.79 and 0.75 and 0.88
pCs/pCa (GluE1αA D646A [14]): 1.12 and 1.10 and 0.98 and 1.02 and 1.05 and 0.97
Cs vs Ca, Avg (Figure S8e, normalized G-V) (GluE1αA S642Q plus D646A [15]): 1.00 and 1.03 and 0.98 and 1.02 and 1.15 and 1.27 and 1.40 and 1.41
pCs/pCa (GluE1αA S642Q plus D646A [15]): 7.48 and 6.98 and 7.28 and 7.47 and 4.49 and 4.01 and 6.97 and 6.40
pCs/pCa (GluE1αA S642N [16]): 5.26 and 5.24 and 5.82 and 3.13 and 4.33 and 4.04
pCs/pNa (GluE1αA S642R [17]): 0.92 and 0.78 and 0.83 and 0.84 and 0.81 and 0.79 and 0.82
pCs/pNa (GluE1αA D646A [18]): 1.01 and 0.96 and 0.98 and 0.97 and 1.08
